Experiments:
[1] = tested on: skin; conditions: healthy subjects, cited from earlier work
[2] = tested on: rheumatoid arthritis; test: Treatment of patients suffering from rheumatoid arthritis (CRP, tender/swollen joints, HAQ, patient's statement); type: in vivo, human
[3] = tested on: polymyalgia rheumatica; test: Treatment of patients suffering from polymyalgia rheumatica (CRP, tender/swollen joints, HAQ); type: in vivo, human; conditions: Patient 14; 70 mg gradually reduced to 8 mg, increased again to 10 mg
Source text: The investigation and determination of the joint condition has been performed by a physician or rheumatologist. A tender joint (TJ) was pressure sensitive but not necessarily swollen. […] The amount of TJ and SJ was counted. A reduction in the amounts of TJ and/or SJ, respectively, was an indication for a reduction in inflammation, mitigation of the disease and an improvement of the patient's health condition.
The CRP (C-reactive protein) is the most important blood laboratory value for detecting and monitoring inflammation in the body. It was determined by a certified laboratory. A low CRP indicates the absence of an inflammation, while a high CRP is indicative for an inflammation to be present.
The functional disability index (HAQ) is the average of the highest numerical values reported for each of the eight different domains. High HAQ-scores correspond to a high degree of disability.
The treatment according to the present invention was performed by topically applying a heat pad on the upper side of the forearm as described in the Materials and Methods' section ‘Application of a heat pad’. The heat pad was applied for about 1 min to 2 min. The skin turned red and became warm and an increase in the skin temperature was palpable. About 30 see to 1 min after removing the heat pad the injections were performed intradermally within the skin of the red and warmed skin area. […]

[4] = tested on: ankylosing spondylitis (Bechterew's disease); type: in vivo, human; conditions: for Outcome of earlier treatment with TNF-α inhibitors (patient history): human, in vivo

COC(=O)c1cccnc1 [MN, methyl nicotinate]
Perfusion response of the skin ([1]; 50 μl of 20 mmol/l MN topically): reproducible perfusion response | Time course of the perfusion increase ([1]; topical application of MN): reaches a stable plateau phase after five minutes

CN(Cc1cnc2nc(N)nc(N)c2n1)c1ccc(C(=O)N[C@@H](CCC(=O)O)C(=O)O)cc1 [MTX, methotrexate]
Adverse side effects / outcome of earlier treatment (patient history) ([2]; human, in vivo): severe adverse effects (tendency to fibrosis in the lungs and sinusitis)

C[C@]12C=CC(=O)C=C1CC[C@@H]1[C@@H]2[C@@H](O)C[C@@]2(C)[C@H]1CC[C@]2(O)C(=O)CO [prednisolone]
Outcome of earlier treatment (patient history) [3]: without complete remission of symptoms

CC[C@@H]1CN(C(=O)NCC(F)(F)F)C[C@@H]1c1cnc2cnc3[nH]ccc3n12 [upadacitinib]
Adverse side effects / outcome of earlier treatment (patient history) ([2]; Patient 7, years 2008 to April 2021): severe adverse effects (tendency to fibrosis in the lungs and sinusitis)

Enbrel®
Outcome of earlier treatment with TNF-α inhibitors (patient history) [4]: accompanied by strong adverse side effects

Remicade®: TNF-α inhibitor
Outcome of earlier treatment with TNF-α inhibitors (patient history) [4]: accompanied by strong adverse side effects

Simponi®: biologic, golimumab; TNF-α inhibitor
Effect of earlier treatment with biologics (patient history) ([4]; Patient 11, ended more than a year before, lost their effect within half a year): had little effect from the outset | Outcome of earlier treatment with TNF-α inhibitors (patient history) [4]: accompanied by strong adverse side effects

tocilizumab: IL-6 inhibitor
Effectiveness of earlier or basic treatment (patient history) ([2]; Patient 7, not the treatment of the invention): only partially efficient
